Experimental data reported in ChEMBL document CHEMBL5291721, “A preclinical secondary pharmacology resource illuminates target-adverse drug reaction associations of marketed drugs” (Nat Commun, 2023).

Experiments:
[1] = molecular target: T1, Alpha-2C adrenergic receptor (Homo sapiens, UniProt P18825); assay type: functional
T1 sequence (P18825 whole entry): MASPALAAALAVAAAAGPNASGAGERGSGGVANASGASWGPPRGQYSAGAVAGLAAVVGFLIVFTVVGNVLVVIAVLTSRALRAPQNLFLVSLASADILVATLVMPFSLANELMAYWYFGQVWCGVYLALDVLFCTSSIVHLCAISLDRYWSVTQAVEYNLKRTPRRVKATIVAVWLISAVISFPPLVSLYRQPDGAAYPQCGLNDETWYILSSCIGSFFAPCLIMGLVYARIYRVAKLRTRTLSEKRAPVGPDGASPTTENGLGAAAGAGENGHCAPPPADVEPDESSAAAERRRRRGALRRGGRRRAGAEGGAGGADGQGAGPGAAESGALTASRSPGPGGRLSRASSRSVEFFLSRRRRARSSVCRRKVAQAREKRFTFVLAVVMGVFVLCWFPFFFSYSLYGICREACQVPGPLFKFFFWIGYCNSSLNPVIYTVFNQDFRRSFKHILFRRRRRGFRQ

[2] = molecular target: T2, Equilibrative nucleoside transporter 1 (Homo sapiens, UniProt Q99808)
T2 sequence (Q99808 whole entry): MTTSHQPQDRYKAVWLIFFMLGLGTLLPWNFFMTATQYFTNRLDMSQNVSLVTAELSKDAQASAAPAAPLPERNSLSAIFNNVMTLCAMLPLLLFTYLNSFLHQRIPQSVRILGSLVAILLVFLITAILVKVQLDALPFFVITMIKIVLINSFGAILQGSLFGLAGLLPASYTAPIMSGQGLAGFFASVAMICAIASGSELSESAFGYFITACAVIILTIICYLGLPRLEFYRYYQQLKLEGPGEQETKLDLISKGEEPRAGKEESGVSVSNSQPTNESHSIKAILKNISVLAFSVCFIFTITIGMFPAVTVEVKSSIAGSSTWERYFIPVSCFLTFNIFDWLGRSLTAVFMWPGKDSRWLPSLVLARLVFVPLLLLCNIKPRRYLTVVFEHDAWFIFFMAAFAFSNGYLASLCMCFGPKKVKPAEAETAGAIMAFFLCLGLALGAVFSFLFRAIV
Also: assay procedure not described here.

Row | Structure (SMILES) | AC50 [1] [µM] | AC50 [2] [µM]
1 | COc1ccccc1Oc1c(NS(=O)(=O)c2ccc(C(C)(C)C)cc2)nc(-c2ncccn2)nc1OCCO [BOSENTAN] | > 10 | > 30
2 | O=C1CCc2cc(OCCCCc3nnnn3C3CCCCC3)ccc2N1 [CILOSTAZOL] | > 30 | 30
3 | Nc1ccc(S(=O)(=O)Nc2nccs2)cc1 [SULFATHIAZOLE] | > 10 | > 30
4 | COc1ccc(CC2c3cc(OC)c(OC)cc3CC[N+]2(C)CCC(=O)OCCCCCOC(=O)CC[N+]2(C)CCc3cc(OC)c(OC)cc3C2Cc2ccc(OC)c(OC)c2)cc1OC (stereo unspecified) | 2.7 | > 30
5 | CN1C[C@H](C(=O)N[C@]2(C)O[C@@]3(O)[C@@H]4CCCN4C(=O)[C@H](Cc4ccccc4)N3C2=O)C=C2c3cccc4[nH]cc(c34)C[C@H]21 [ERGOTAMINE] | 0.14 | > 30
6 | CC(S)C(=O)NCC(=O)O (stereo unspecified) [TIOPRONIN] | > 30 | > 30
7 | O=C1C(CC[S+]([O-])c2ccccc2)C(=O)N(c2ccccc2)N1c1ccccc1 (stereo unspecified) [SULFINPYRAZONE] | > 10 | > 10
8 | CC(C)(C)NCC(O)c1cc(O)cc(O)c1 (stereo unspecified) [TERBUTALINE] | – | > 30
9 | C[C@@H](NCCCc1cccc(C(F)(F)F)c1)c1cccc2ccccc12 | 0.83 | > 30
10 | CCN1CCN(Cc2ccc(Nc3ncc(F)c(-c4cc(F)c5nc(C)n(C(C)C)c5c4)n3)nc2)CC1 [ABEMACICLIB] | > 30 | > 30
11 | C[C@H]1c2cccc(O)c2C(=O)C2=C(O)[C@]3(O)C(=O)C(C(N)=O)=C(O)[C@@H](N(C)C)[C@@H]3[C@@H](O)[C@@H]21 [DOXYCYCLINE] | > 10 | > 30
12 | CCN(CC)CCNC(=O)c1c(C)[nH]c(/C=C2\C(=O)Nc3ccc(F)cc32)c1C [SUNITINIB] | 1.77 | 5
13 | CO[C@H]1/C=C/O[C@@]2(C)Oc3c(C)c(O)c4c(O)c(c(/C=N/N5CCN(C)CC5)c(O)c4c3C2=O)NC(=O)/C(C)=C\C=C\[C@H](C)[C@H](O)[C@@H](C)[C@@H](O)[C@@H](C)[C@H](OC(C)=O)[C@@H]1C [RIFAMPIN] | 11 | 12.4
14 | C[C@H](CCC(=O)O)[C@H]1CC[C@H]2[C@@H]3[C@@H](O)C[C@@H]4C[C@H](O)CC[C@]4(C)[C@H]3CC[C@]12C [URSODIOL] | > 30 | > 30
15 | CN(C)CCC[C@@]1(c2ccc(F)cc2)OCc2cc(C#N)ccc21 [ESCITALOPRAM] | > 30 | > 30
16 | CC(C(=O)O)c1ccc2c(c1)[nH]c1ccc(Cl)cc12 (stereo unspecified) [CARPROFEN] | > 10 | > 30
17 | O=C1CN(/N=C/c2ccc(-c3ccc([N+](=O)[O-])cc3)o2)C(O)=N1 [DANTROLENE] | > 10 | > 10
18 | CN(C)CCc1c[nH]c2ccc(Cn3cncn3)cc12 [RIZATRIPTAN] | 20.8 | > 30
19 | C[C@]12C=CC(=O)N[C@@H]1CC[C@@H]1[C@@H]2CC[C@]2(C)[C@@H](C(=O)Nc3cc(C(F)(F)F)ccc3C(F)(F)F)CC[C@@H]12 [DUTASTERIDE] | > 10 | > 10
20 | COc1ccccc1OCCNCC(O)COc1cccc2[nH]c3ccccc3c12 (stereo unspecified) [CARVEDILOL] | 0.061 | 31.7
21 | C[C@@H](Oc1cc(-c2cnn(C3CCNCC3)c2)cnc1N)c1c(Cl)ccc(F)c1Cl [CRIZOTINIB] | 1.2 | > 30
22 | CC(C)c1nc(N(C)S(C)(=O)=O)nc(-c2ccc(F)cc2)c1/C=C/[C@@H](O)C[C@@H](O)CC(=O)O [ROSUVASTATIN] | > 30 | > 30
23 | C=C[C@H]1C[N@@]2CC[C@H]1C[C@@H]2[C@@H](O)c1ccnc2ccc(OC)cc12 [QUINIDINE] | 18 | > 30
24 | CC(C)N(CCC(C(N)=O)(c1ccccc1)c1ccccn1)C(C)C (stereo unspecified) [DISOPYRAMIDE] | > 10 | > 30
25 | CN(C)CC[C@@H](c1ccc(Cl)cc1)c1ccccn1 [DEXCHLORPHENIRAMINE] | > 30 | > 30
26 | N[C@@H](CC(=O)N1CCn2c(nnc2C(F)(F)F)C1)Cc1cc(F)c(F)cc1F [SITAGLIPTIN] | > 30 | > 30
